Test results published in publication PMC5218480 (PLoS ONE, 2017).

Tested on: MV-4-11 cells
Test: Gene expression microarray analysis (Affymetrix PrimeView) and GSEA
Assay type: cell-based, human
Design: RFU PODN (11730768_x_at) / Fold change /veh PODN (11730768_x_at) / RFU LINC00158 (11744669_a_at) / Fold change /veh LINC00158 (11744669_a_at) / RFU DUSP10 (11751237_a_at) / Fold change /veh DUSP10 (11751237_a_at) / RFU ID3 (11757404_x_at) / Fold change /veh ID3 (11757404_x_at) / RFU PLEKHG5 (11737974_s_at) / Fold change /veh PLEKHG5 (11737974_s_at) / RFU LRRC4B (11730491_at) / Fold change /veh LRRC4B (11730491_at) / RFU GIMAP4 (11747438_a_at) / Fold change /veh GIMAP4 (11747438_a_at) / RFU KRT8 (11758183_x_at) / Fold change /veh KRT8 (11758183_x_at) / RFU CNN1 (11734310_a_at) / Fold change /veh CNN1 (11734310_a_at) / RFU VPS37D (11726825_at) / Fold change /veh VPS37D (11726825_at) / RFU C10orf10 (11716522_x_at) / Fold change /veh C10orf10 (11716522_x_at) / RFU KIR2DL2 /// KIR2DL4 /// KIR2DL5A /// KIR2DL5B /// KIR2DS1 /// KIR2DS2 /// KIR2DS3 /// KIR2DS4 /// KIR3DL3 /// KIR3DL3 /// KIR3DS1 (11738374_at) / Fold change /veh KIR2DL2 /// KIR2DL4 /// KIR2DL5A /// KIR2DL5B /// KIR2DS1 /// KIR2DS2 /// KIR2DS3 /// KIR2DS4 /// KIR3DL3 /// KIR3DL3 /// KIR3DS1 (11738374_at) / RFU C1QL1 (11718748_at) / Fold change /veh C1QL1 (11718748_at) / RFU TMPRSS4 (11747572_a_at) / Fold change /veh TMPRSS4 (11747572_a_at) / RFU HAMP (11756126_x_at) / Fold change /veh HAMP (11756126_x_at) / RFU RNFT2 (11725882_a_at) / Fold change /veh RNFT2 (11725882_a_at) / RFU NR4A2 (11747474_a_at) / Fold change /veh NR4A2 (11747474_a_at) / RFU ABCC12 (11746883_a_at) / Fold change /veh ABCC12 (11746883_a_at) / RFU TMEM136 (11760407_x_at) / Fold change /veh TMEM136 (11760407_x_at) / RFU CLDN22 /// WWC2 (11732394_at) / Fold change /veh CLDN22 /// WWC2 (11732394_at) / RFU HLA-DPB1 (11760878_x_at) / Fold change /veh HLA-DPB1 (11760878_x_at) / RFU SPINT1 (11716480_a_at) / Fold change /veh SPINT1 (11716480_a_at) / RFU GAP43 (11754022_s_at) / Fold change /veh GAP43 (11754022_s_at) / RFU A4GNT (11735810_at) / Fold change /veh A4GNT (11735810_at) / RFU PRB3 (11715151_x_at) / Fold change /veh PRB3 (11715151_x_at) / RFU TUBB4B (11761932_at) / Fold change /veh TUBB4B (11761932_at) / RFU CAPN14 (11732068_a_at) / Fold change /veh CAPN14 (11732068_a_at) / RFU TMCC2 (11721928_a_at) / Fold change /veh TMCC2 (11721928_a_at) / RFU IRGQ (11745062_a_at) / Fold change /veh IRGQ (11745062_a_at) / RFU FAM174B (11720279_a_at) / Fold change /veh FAM174B (11720279_a_at) / RFU TMPRSS4 (11748680_a_at) / Fold change /veh TMPRSS4 (11748680_a_at) / RFU FAM212B (11763350_a_at) / Fold change /veh FAM212B (11763350_a_at) / RFU PLEKHG5 (11743358_a_at) / Fold change /veh PLEKHG5 (11743358_a_at) / RFU ZSCAN30 (11745921_a_at) / Fold change /veh ZSCAN30 (11745921_a_at) / RFU CMKLR1 (11741424_a_at) / Fold change /veh CMKLR1 (11741424_a_at) / RFU LOC101060620 /// MAPK8IP1 (11723275_at) / Fold change /veh LOC101060620 /// MAPK8IP1 (11723275_at) / RFU SPTSSB (11747773_x_at) / Fold change /veh SPTSSB (11747773_x_at) / RFU PRSS12 (11739890_at) / Fold change /veh PRSS12 (11739890_at) / RFU BIN1 (11741810_x_at) / Fold change /veh BIN1 (11741810_x_at) / RFU WNT11 (11732464_a_at) / Fold change /veh WNT11 (11732464_a_at) / RFU C10orf10 (11716521_a_at) / Fold change /veh C10orf10 (11716521_a_at) / RFU C5orf56 (11738089_at) / Fold change /veh C5orf56 (11738089_at) / RFU CYB561 (11721691_x_at) / Fold change /veh CYB561 (11721691_x_at) / RFU ANKRD19P (11752326_a_at) / Fold change /veh ANKRD19P (11752326_a_at) / RFU OR2T12 /// OR2T33 /// OR2T8 (11738714_s_at) / Fold change /veh OR2T12 /// OR2T33 /// OR2T8 (11738714_s_at) / RFU VCAN (11748164_a_at) / Fold change /veh VCAN (11748164_a_at) / RFU JSRP1 (11732532_at) / Fold change /veh JSRP1 (11732532_at) / RFU KRTAP10-11 (11738290_x_at) / Fold change /veh KRTAP10-11 (11738290_x_at) / RFU MYO3A (11730013_a_at) / Fold change /veh MYO3A (11730013_a_at) / RFU EBF3 (11725865_a_at) / Fold change /veh EBF3 (11725865_a_at) / RFU CAMK2N1 (11719241_x_at) / Fold change /veh CAMK2N1 (11719241_x_at) / RFU C5orf56 (11738088_a_at) / Fold change /veh C5orf56 (11738088_a_at) / RFU OLFML3 (11715873_a_at) / Fold change /veh OLFML3 (11715873_a_at) / RFU LOC100653217 /// NTM (11731650_a_at) / Fold change /veh LOC100653217 /// NTM (11731650_a_at) / RFU MAPK11 (11762145_a_at) / Fold change /veh MAPK11 (11762145_a_at) / RFU FIZ1 (11724087_x_at) / Fold change /veh FIZ1 (11724087_x_at) / RFU OASL (11726364_x_at) / Fold change /veh OASL (11726364_x_at) / RFU SOX15 (11748057_x_at) / Fold change /veh SOX15 (11748057_x_at) / RFU CD79A (11719716_a_at) / Fold change /veh CD79A (11719716_a_at) / RFU HIST1H1D (11736915_at) / Fold change /veh HIST1H1D (11736915_at) / RFU CASKIN2 (11723855_a_at) / Fold change /veh CASKIN2 (11723855_a_at) / RFU LOC730098 (11760151_x_at) / Fold change /veh LOC730098 (11760151_x_at) / RFU OR4N2 (11742367_at) / Fold change /veh OR4N2 (11742367_at) / RFU PRRT2 (11749266_a_at) / Fold change /veh PRRT2 (11749266_a_at) / RFU SNX32 (11753110_a_at) / Fold change /veh SNX32 (11753110_a_at) / RFU CDHR5 (11726645_a_at) / Fold change /veh CDHR5 (11726645_a_at) / RFU RCAN1 (11760418_a_at) / Fold change /veh RCAN1 (11760418_a_at) / RFU FAM167A (11723789_a_at) / Fold change /veh FAM167A (11723789_a_at) / RFU FAM26E (11764081_at) / Fold change /veh FAM26E (11764081_at) / RFU ISYNA1 (11749810_s_at) / Fold change /veh ISYNA1 (11749810_s_at) / RFU ACY1 (11761880_at) / Fold change /veh ACY1 (11761880_at) / RFU 11764098_at / Fold change /veh 11764098_at / RFU SAMD14 (11745864_x_at) / Fold change /veh SAMD14 (11745864_x_at) / RFU NPB (11741838_a_at) / Fold change /veh NPB (11741838_a_at) / RFU TMPRSS6 (11731388_a_at) / Fold change /veh TMPRSS6 (11731388_a_at) / RFU KRTAP10-2 (11738614_at) / Fold change /veh KRTAP10-2 (11738614_at) / RFU ARHGAP8 /// PRR5-ARHGAP8 (11727945_x_at) / Fold change /veh ARHGAP8 /// PRR5-ARHGAP8 (11727945_x_at) / RFU KRTAP5-7 /// NADSYN1 (11734609_at) / Fold change /veh KRTAP5-7 /// NADSYN1 (11734609_at) / RFU RASL12 (11751679_a_at) / Fold change /veh RASL12 (11751679_a_at) / RFU CDKN2B (11736163_a_at) / Fold change /veh CDKN2B (11736163_a_at) / RFU PRF1 (11729649_at) / Fold change /veh PRF1 (11729649_at) / RFU, ZNF638 /// ZNF638-IT1 / Fold change vs veh, ZNF638 /// ZNF638-IT1 / RFU, PANK3 / Fold change vs veh, PANK3 / RFU, SH3YL1 / Fold change vs veh, SH3YL1 / RFU, ZEB2 / Fold change vs veh, ZEB2 / RFU, NRIP1 / Fold change vs veh, NRIP1 / RFU, PTTG1IP / Fold change vs veh, PTTG1IP / RFU, CAPN2 / Fold change vs veh, CAPN2 / RFU, MED14 / Fold change vs veh, MED14 / RFU, SNORA58 / Fold change vs veh, SNORA58 / RFU, C1orf63 / Fold change vs veh, C1orf63 / RFU, LRRFIP1 / Fold change vs veh, LRRFIP1 / RFU, NDUFAF7 / Fold change vs veh, NDUFAF7 / RFU, SLC12A2 / Fold change vs veh, SLC12A2 / RFU, IBTK / Fold change vs veh, IBTK / RFU, ESF1 / Fold change vs veh, ESF1 / Fold change vs veh, TMEM50B / RFU, TAOK1 / Fold change vs veh, TAOK1 / RFU, ACBD3 / Fold change vs veh, ACBD3 / RFU, TMA16 / Fold change vs veh, TMA16 / RFU, RWDD3 / Fold change vs veh, RWDD3 / RFU, BCAT1 / Fold change vs veh, BCAT1 / RFU, EDEM3 / Fold change vs veh, EDEM3 / RFU, TMEM33 / Fold change vs veh, TMEM33 / RFU, WDR75 / Fold change vs veh, WDR75 / RFU, AHCTF1 / Fold change vs veh, AHCTF1 / RFU, TFRC / Fold change vs veh, TFRC / RFU, ZDHHC17 / Fold change vs veh, ZDHHC17 / RFU, NOM1 / Fold change vs veh, NOM1 / RFU, ARL8B / Fold change vs veh, ARL8B / RFU, ZBTB11 / Fold change vs veh, ZBTB11 / RFU, TAMM41 / Fold change vs veh, TAMM41 / RFU, KIAA1704 /// LOC100996395 / Fold change vs veh, KIAA1704 /// LOC100996395 / RFU, ING1 / Fold change vs veh, ING1 / RFU, TRMT61B / Fold change vs veh, TRMT61B / RFU, FUBP3 / Fold change vs veh, FUBP3 / RFU, TP53 / Fold change vs veh, TP53 / RFU, TNKS2 / Fold change vs veh, TNKS2 / RFU, ZFP14 / Fold change vs veh, ZFP14 / RFU, ACTR2 / Fold change vs veh, ACTR2 / RFU, PPP3R1 / Fold change vs veh, PPP3R1 / RFU, PIK3R1 / Fold change vs veh, PIK3R1 / RFU, HNRNPA1 / Fold change vs veh, HNRNPA1 / RFU, RNF170 / Fold change vs veh, RNF170 / RFU, ZNF28 / Fold change vs veh, ZNF28 / RFU, RNGTT / Fold change vs veh, RNGTT / RFU, OGT / Fold change vs veh, OGT / RFU, BRD1 / Fold change vs veh, BRD1 / RFU, MARS / Fold change vs veh, MARS / RFU, ZNF655 / Fold change vs veh, ZNF655 / RFU, FAHD1 / Fold change vs veh, FAHD1 / RFU, BDP1 / Fold change vs veh, BDP1 / RFU, LRRCC1 / Fold change vs veh, LRRCC1 / RFU, ARID1A / Fold change vs veh, ARID1A / RFU, ZNF146 / Fold change vs veh, ZNF146 / RFU, ZNF330 / Fold change vs veh, ZNF330 / RFU, GPN3 / Fold change vs veh, GPN3 / RFU, C9orf123 / Fold change vs veh, C9orf123 / RFU, N4BP2L2 / Fold change vs veh, N4BP2L2 / RFU, ARFIP1 / Fold change vs veh, ARFIP1 / RFU, FAM179B / Fold change vs veh, FAM179B / RFU, BCL10 / Fold change vs veh, BCL10 / RFU, UHRF1BP1L / Fold change vs veh, UHRF1BP1L / RFU, BET1 / Fold change vs veh, BET1 / RFU, CNOT2 / Fold change vs veh, CNOT2 / RFU, ZNF268 / Fold change vs veh, ZNF268 / Fold change vs veh, ZNF507 / RFU, DGCR2 / Fold change vs veh, DGCR2 / RFU, WDSUB1 / Fold change vs veh, WDSUB1 / Fold change vs veh, HSP90B1 /// MIR3652 / RFU, ADSS / Fold change vs veh, ADSS / RFU, GK / Fold change vs veh, GK / RFU, ZNF148 / Fold change vs veh, ZNF148 / RFU, TAF9 / Fold change vs veh, TAF9 / RFU, SLC1A5 / Fold change vs veh, SLC1A5 / RFU, SLMO2 / Fold change vs veh, SLMO2 / RFU, ABCC4 / Fold change vs veh, ABCC4 / RFU, LOC101060439 /// RAP1B / Fold change vs veh, LOC101060439 /// RAP1B / RFU, RFX7 / Fold change vs veh, RFX7 / RFU, GTPBP10 / Fold change vs veh, GTPBP10 / RFU, CNEP1R1 / Fold change vs veh, CNEP1R1 / RFU, BIVM-ERCC5 /// ERCC5 / Fold change vs veh, BIVM-ERCC5 /// ERCC5 / RFU, ILF3 / Fold change vs veh, ILF3 / RFU 11762660_at / Fold change /veh 11762660_at / RFU VCAN (11757783_s_at) / Fold change /veh VCAN (11757783_s_at) / RFU DDX43 (11728927_at) / Fold change /veh DDX43 (11728927_at) / RFU KRT8 (11758188_x_at) / Fold change /veh KRT8 (11758188_x_at) / RFU NKD1 (11759106_at) / Fold change /veh NKD1 (11759106_at) / RFU SRD5A1 (11742802_a_at) / Fold change /veh SRD5A1 (11742802_a_at) / RFU TPSAB1 /// TPSB2 (11721975_s_at) / Fold change /veh TPSAB1 /// TPSB2 (11721975_s_at) / RFU GSTM3 (11746129_a_at) / Fold change /veh GSTM3 (11746129_a_at) / RFU IL23R (11737362_x_at) / Fold change /veh IL23R (11737362_x_at) / RFU TMEM51 (11727254_a_at) / Fold change /veh TMEM51 (11727254_a_at) / RFU PIWIL2 (11732686_x_at) / Fold change /veh PIWIL2 (11732686_x_at) / RFU ORM1 (11744905_x_at) / Fold change /veh ORM1 (11744905_x_at) / RFU CCDC152 (11743942_at) / Fold change /veh CCDC152 (11743942_at) / RFU ECM1 (11717891_a_at) / Fold change /veh ECM1 (11717891_a_at) / RFU IL23R (11748794_a_at) / Fold change /veh IL23R (11748794_a_at) / RFU TNFAIP8L3 (11732012_x_at) / Fold change /veh TNFAIP8L3 (11732012_x_at) / RFU MBOAT4 (11741988_at) / Fold change /veh MBOAT4 (11741988_at) / RFU 11764193_at / Fold change /veh 11764193_at / RFU TMEM53 (11763286_at) / Fold change /veh TMEM53 (11763286_at) / RFU MAGEB2 (11727129_at) / Fold change /veh MAGEB2 (11727129_at) / RFU TMEM200A (11744735_a_at) / Fold change /veh TMEM200A (11744735_a_at) / RFU CCDC152 (11751479_a_at) / Fold change /veh CCDC152 (11751479_a_at) / RFU FAM211A (11726209_a_at) / Fold change /veh FAM211A (11726209_a_at) / RFU RGS16 (11746705_a_at) / Fold change /veh RGS16 (11746705_a_at) / RFU VCAN (11755009_s_at) / Fold change /veh VCAN (11755009_s_at) / RFU RHOB (11743442_s_at) / Fold change /veh RHOB (11743442_s_at) / RFU RGS16 (11720943_a_at) / Fold change /veh RGS16 (11720943_a_at) / RFU RGS16 (11720944_at) / Fold change /veh RGS16 (11720944_at) / RFU, VPS4B / Fold change vs veh, VPS4B / RFU, CREB1 / Fold change vs veh, CREB1 / RFU, DNAJC13 / Fold change vs veh, DNAJC13 / RFU, GNAQ / Fold change vs veh, GNAQ / RFU, CDK5R1 / Fold change vs veh, CDK5R1 / RFU, ZRANB3 / Fold change vs veh, ZRANB3 / RFU, CUL4A / Fold change vs veh, CUL4A / RFU, CCNY / Fold change vs veh, CCNY / RFU, UFL1 / Fold change vs veh, UFL1 / RFU, COG3 / Fold change vs veh, COG3 / RFU, DIAPH2 / Fold change vs veh, DIAPH2 / RFU, SKA2 / Fold change vs veh, SKA2 / RFU, AFF3 / Fold change vs veh, AFF3 / RFU, LMF1 / Fold change vs veh, LMF1 / RFU, IPO11 / Fold change vs veh, IPO11 / RFU, DFFB / Fold change vs veh, DFFB / RFU, FOXP1 / Fold change vs veh, FOXP1 / RFU, CARD8 / Fold change vs veh, CARD8 / RFU, STRN3 / Fold change vs veh, STRN3 / RFU, ADK / Fold change vs veh, ADK / RFU, RASSF2 / Fold change vs veh, RASSF2 / RFU, WIPF1 / Fold change vs veh, WIPF1 / RFU, LARP1B / Fold change vs veh, LARP1B / RFU, RASA1 / Fold change vs veh, RASA1 / RFU, RB1 / Fold change vs veh, RB1 / RFU, PPFIA1 / Fold change vs veh, PPFIA1 / RFU, MAT2A / Fold change vs veh, MAT2A / RFU, CCT5 / Fold change vs veh, CCT5 / RFU, WDR92 / Fold change vs veh, WDR92 / RFU, CUX1 / Fold change vs veh, CUX1 / RFU, TTC7A / Fold change vs veh, TTC7A / RFU, TMEM135 / Fold change vs veh, TMEM135 / RFU, DEPTOR / Fold change vs veh, DEPTOR / RFU, CPM / Fold change vs veh, CPM / RFU, DNAJB6 / Fold change vs veh, DNAJB6 / RFU, CACNA2D3 / Fold change vs veh, CACNA2D3 / RFU, DTX4 / Fold change vs veh, DTX4 / RFU, TFCP2 / Fold change vs veh, TFCP2 / RFU, GMCL1 /// GMCL1P1 / Fold change vs veh, GMCL1 /// GMCL1P1 / RFU, AEBP2 / Fold change vs veh, AEBP2 / RFU, SNHG1 /// SNORD22 /// SNORD25 /// SNORD26 /// SNORD27 /// SNORD28 /// SNORD29 /// SNORD31 / Fold change vs veh, SNHG1 /// SNORD22 /// SNORD25 /// SNORD26 /// SNORD27 /// SNORD28 /// SNORD29 /// SNORD31 / Fold change (Aza/veh), C12orf56 (ProbeSet 11735607_a_at) / Fold change (ACY-1035/veh), C12orf56 (ProbeSet 11735607_a_at) / Fold change (Aza/veh), FGFR1OP (ProbeSet 11751329_s_at) / Fold change (ACY-1035/veh), FGFR1OP (ProbeSet 11751329_s_at) / Fold change (Aza/veh), VPS36 (ProbeSet 11739960_a_at) / Fold change (ACY-1035/veh), VPS36 (ProbeSet 11739960_a_at) / RFU SYPL1 (11715823_x_at) / Fold change /veh SYPL1 (11715823_x_at) / RFU IGFBP7 (11715501_s_at) / Fold change /veh IGFBP7 (11715501_s_at) / RFU REEP3 (11722064_at) / Fold change /veh REEP3 (11722064_at) / RFU IGLL1 (11728026_x_at) / Fold change /veh IGLL1 (11728026_x_at): dose or concentration left out as unconfirmed
Conditions: ProbeSet 11755436_x_at; LIST B

Nc1ncn([C@@H]2O[C@H](CO)[C@@H](O)[C@H]2O)c(=O)n1 [azacitidine]
RFU, ARID1A: 63.57 RFU
